From paper PMC10818380, “Triphenylphosphonium Analogs of Short Peptide Related to Bactenecin 7 and Oncocin 112 as Antimicrobial Agents” (Pharmaceutics, 2024)
≈ marks a conversion by molar mass, not a printed value. Read-outs that look alike come from different tables or passages of the source. Peptide text beside a SMILES is read from it. * marks the point of attachment. X3 = O=C(CCCCCCCCCC[P+](c1ccccc1)(c1ccccc1)c1ccccc1)*

What was measured:
[1] = tested on: E. coli BW25113; experiment: microbe, parasite or virus in culture; type: cell-based; settings: E. coli BW25113, 37 °C, 18 h
Procedure: (§1) The MIC values for Bac(1–10), Bac(1–10, R/Y), Bac(1–10, R/Y)-Cn-TPP, TPP-C10-Bac(1–10, R/Y), and Onc112 were determined via LB broth microdilution, as recommended by CLSI in the Methods for Dilution Antimicrobial Susceptibility Tests for Bacteria that Grow Aerobically, Approved Standard, 9th ed., CLSI document M07-A9, using in-house-prepared panels. The compounds were diluted in a 96-well microtiter plate to final concentrations ranging from 0.1 to 100 µM in a 200 µL aliquot of the bacterial suspension, followed by incubation at 37 °C for 18 h. The cell concentration was estimated according to the absorbance (A600). The measurements were performed with a VICTOR X5 Multilabel Plate Reader (PerkinElmer, Waltham, MA, USA). The following bacterial strains were used: E. coli BW25113, E. coli JW0368 ΔsbmA, B. subtilis 168, and B. subtilis CFR [39].

[2] = tested on: B. subtilis 168; experiment: microbe, parasite or virus in culture; type: cell-based
Procedure: as §1

[3] = tested on: B. subtilis CFR; experiment: microbe, parasite or virus in culture; type: cell-based; settings: 18 h
Procedure: as §1

[4] = tested on: E. coli JW0368 ΔsbmA; experiment: microbe, parasite or virus in culture; type: cell-based; settings: for MIC: 18 h; for comparison of MIC values, E. coli ΔsbmA versus wild type: MIC values of Table 1
Procedure: as §1

[5] = tested on: HEK293T; experiment: cells; type: cell-based, human; settings: 72 h
Procedure: (§2) The cytotoxicity of the substances under study was tested using the MTT (3-(4,5-dimethylthiazol-2-yl)-2,5-diphenyltetrazolium bromide) assay with some modifications. The detailed procedure for the MTT assay is given in the Supplementary Materials (Section S5).
(§3) Two thousand five hundred cells per well for the MCF7, HEK293T, and A549 cell lines or 4000 cells per well for the VA13 cell line were plated in 135 µL of DMEM-F12 media with 10% FBS (both Gibco, Waltham, MA, USA) in a 96-well plate and were incubated in a 5% CO2 incubator for the first 16 h, without treatment. Then 15 µL of media-DMSO solutions of the tested substances were added to the cells (the final DMSO concentrations in the media were 1% or less), and the cells were treated for 72 h with 25 nM–50 µM (eight dilutions) of the tested substances (triplicate each). Serial dilutions of DMSO and doxorubicin were used as controls. The MTT reagent (Paneco LLC, Moscow, Russia) was then added to the cells at a final concentration of 0.5 g/L (10× stock solution in PBS was used) and incubated for 2.5 h at 37 °C in the incubator under an atmosphere of 5%
(§4) CO2. The MTT solution was then discarded, and 140 µL of DMSO (PharmaMed LLC, Krasnodar, Russia) was added. The plates were swayed on a shaker (60 rpm) to dissolve the formazan. The absorbance was measured using the VICTOR X5 Multilabel Plate Reader (PerkinElmer, Wa l th a m, MA, USA) at a wavelength of 565 nm (in order to measure formazan concentration). The resu l ts were used to construct a dose-response graph and to estimate IC50 values.
(§5) Figure S11.The dependencies of viability of cells after treatment by tested compounds.
(§6) (1 picture or pasted object on this page, not shown here)

[6] = tested on: MCF7; experiment: cells; type: cell-based, human
Procedure: as §2, §3, §4, §5, §6

[7] = tested on: VA13; experiment: cells; type: cell-based, human
Procedure: as §2, §3, §4, §5, §6

[8] = tested on: A549; experiment: cells
Procedure: as §2, §3, §4, §5, §6

[9] = tested on: 70S E. coli ribosome; experiment: Competition-binding assay, displacement of BODIPY-Bac(1–10), fluorescence anisotropy; settings: CI (α = 0.05), read-out: apparent dissociation constant (KD)
Procedure: 70S ribosomes were isolated from E. coli MRE600 cells according to a published procedure. The binding of BODIPY-Bac(1–10) to 70S E. coli ribosomes was performed according to the following procedure. BODIPY-Bac(1–10) (16 nM) was incubated with ribosomes (from 0.5 nM to 2000 nM) for 2 h at 26 °C in a buffer containing 20 mM of HEPES-KOH (pH 7.5), 50 mM of NH4Cl, 10 mM of Mg(CH3COO)2, 4 mM of β-mercaptoethanol, and 0.05% Tween-20. The binding affinities of peptides 1 and 2, their TPP analogs 3–5, as well as the control compounds for the E. coli ribosome were analyzed via a competition-binding assay using fluorescently labeled BODIPY-Bac(1–10) or BODIPY-ERY, as described before in [38, 54]. The fluorescent compound (16 nM) was mixed with ribosomes (84 nM for BODIPY-Bac(1–10) and 46 nM for BODIPY-ERY) in the buffer. Solutions of the tested compounds were added to the obtained complexes to final concentrations ranging from 0.01 to 100 µM. The mixtures were incubated for 2 h at 26 °C, and then the values of fluorescence anisotropy were measured with a VICTOR X5 Multilabel Plate Reader (PerkinElmer, Waltham, MA, USA) using a 384-well plate. The excitation wavelength was 485 nm, and the emission wavelength was 535 nm. From the data obtained, apparent dissociation constants were calculated.

[10] = tested on: B. subtilis; experiment: Membrane potential with fluorescent probe diS-C3-(5); type: cell-based; settings: diS-C3-(5) fluorescence
Procedure: The membrane potential of B. subtilis was assessed by measuring the fluorescence emitted by the potential-dependent probe, diS-C3-(5). Bacterial cells derived from the overnight culture of B. subtilis were inoculated into a fresh LB medium and allowed to grow for 24 h until reaching an optical density of 0.8 at 600 nm. Subsequently, the bacteria were subjected to a 20-fold dilution in a buffer comprising 100 mM of KCl and 10 mM of Tris, adjusted to a pH of 7.4. Fluorescence measurements were conducted at 670 nm (with excitation at 630 nm) using a Fluorat-02-Panorama fluorimeter manufactured by Lumex Instruments in St. Petersburg, Russia.

[11] = tested on: E. coli JW5503 (∆tolC) (KanS) pDualrep2; experiment: pDualrep2 double-reporter agar plate test; type: cell-based; settings: 1 µL of 10 mM solution on agar plate
Procedure: The “pDualrep2” system was used to evaluate the mechanism of the antimicrobial action of the synthesized compounds. This system is based on the hypersensitive strain E. coli JW5503 (∆tolC) (KanS) transformed with the “pDualrep2” plasmid, which allows one to sort out suppressors of protein synthesis or SOS response inducers. Briefly, 1 µL of 10 mM water solutions of Bac(1–10), Bac(1–10, R/Y), Bac(1–10, R/Y)-Cn-TPP, TPP-C10-Bac(1–10, R/Y), and Onc112 were applied onto the agar plate that already contained a layer of the reporter strain E. coli JW5503 (∆tolC) (KanS) pDualrep2, and then the plate was incubated overnight at 37 °C. The agar plate was scanned using the ChemiDoc^TM Imaging System (Bio-Rad Laboratories, Hercules, CA, USA), containing two channels, “Cy3-blot” (553/574 nm; green pseudocolor) for Turbo Red Fluorescent Protein (TurboRFP) detection and “Cy5-blot” (588/633 nm; red pseudocolor) for Katushka2S fluorescence. […] Levofloxacin (LEV; 50 μg/mL, 1 μL) and erythromycin (ERY; 5 mg/mL, 1 μL) were utilized as positive controls for DNA and protein synthesis inhibitors, respectively.

[12] = tested on: bacterial translation (E. coli S30 extract); experiment: In vitro translation inhibition of firefly luciferase mRNA, E. coli S30 extract; type: biochemical; settings: 30 µM
Procedure: Briefly, in vitro-transcribed firefly luciferase mRNA (fluc) was translated using the E. coli S30 Extract System for Linear Templates (Promega, Madison, WI, USA). Reaction mixtures (with a 5 μL total volume) supplemented with 0.1 mM of a mixture of all canonical amino acids, 4 U of RiboLock RNase Inhibitor (Thermo Fisher Scientific, Waltham, MA, USA), and 0.1 mM of D-luciferin (Sigma-Aldrich, Burlington, MA, USA) were pre-incubated at RT for 5 min after the addition of the tested compounds at a final concentration of 30 µM. Then, 50 ng of the mRNA was added to each reaction tube, and the mixtures were immediately subjected to continuous chemiluminescence measurements using the VICTOR X5 Multilabel Plate Reader (PerkinElmer, Waltham, MA, USA) at 37 °C for 30 min. The maximal rates of the firefly luciferase (Fluc) accumulation were calculated using the OriginPro 7.5 software. The values were normalized to a positive control (0.3% DMSO, assigned a value of 100%).

[13] = B. subtilis-CFR (chloramphenicol-resistant), 37 °C
[14] = HEK293T, MTT, read-out: IC50 (50% inhibition of viability of cells)
[15] = MCF7, 72 h, MTT, read-out: IC50 (50% inhibition of viability of cells)
[16] = VA13, 72 h, MTT, read-out: IC50 (50% inhibition of viability of cells)
[17] = read-out: IC50 (50% inhibition of viability of cells), A549, 72 h, MTT

CCCC[P+](c1ccccc1)(c1ccccc1)c1ccccc1 [C4-TPP, reference compound]
MIC [1]: >100 µM
MIC ([2]; B. subtilis 168, 37 °C, 18 h): >100 µM
MIC [3, 13]: >100 µM
MIC ([4]; E. coli ∆sbmA, 37 °C): >100 µM
IC50 [5, 14]: 2900 ± 500 nM
IC50 [6, 15]: 8000 ± 2000 nM
IC50 [7, 16]: 11000 ± 2000 nM
IC50 [8, 17]: 6200 ± 900 nM

H-RRIRPRPPRL-OH [Compound 1, Bac(1–10)]
MIC ([2]; 168, 18 h): >50 µM
MIC ([3]; CFR): >50 µM
Kd [9]: 1400 ± 100 nM
effect on membrane potential of B. subtilis ([10]; 50 µM): did not affect the membrane potential
inhibitory effect on growth of bacterial cells [11]: did not exhibit any antibacterial activity
inhibition of bacterial translation of firefly luciferase (Fluc) mRNA [12]: practically did not inhibit

CCCCCCCCCC[P+](c1ccccc1)(c1ccccc1)c1ccccc1 [C10-TPP, reference compound]
MIC [1]: 50 µM
MIC ([2]; B. subtilis 168, 37 °C, 18 h): 1.6 µM
MIC [3, 13]: 0.8 µM
MIC ([4]; E. coli ∆sbmA, 37 °C): 50 µM
comparison of MIC values, E. coli ΔsbmA versus wild type [4]: the same
IC50 [5, 14]: < 160 nM
IC50 [6, 15]: 250 ± 70 nM
IC50 [7, 16]: < 160 nM
inhibitory effect on growth of bacterial cells [11]: caused a large growth inhibition zone
reporter induction (Katushka2S red pseudocolor = protein synthesis inhibition) [11]: did not induce the reporters
IC50 [8, 17]: < 160 nM

CC[C@H](C)[C@H](NC(=O)[C@H](CCCNC(=N)N)NC(=O)[C@H](CCCNC(=N)N)NC(=O)CCCCCCCCCC[P+](c1ccccc1)(c1ccccc1)c1ccccc1)C(=O)N[C@@H](CCCNC(=N)N)C(=O)N1CCC[C@H]1C(=O)N[C@@H](CCCNC(=N)N)C(=O)N1CCC[C@H]1C(=O)N1CCC[C@H]1C(=O)N[C@@H](Cc1ccc(O)cc1)C(=O)N[C@@H](CC(C)C)C(=O)O [Compound 5, TPP-C10-Bac(1–10, R/Y)] (X3-RRIRPRPPYL-OH)
MIC [1]: 5.3 µM
MIC ([2]; B. subtilis 168, 37 °C, 18 h): 12.5 µM
MIC ([3]; CFR): 12.5 µM
MIC ([4]; E. coli ∆sbmA, 37 °C): 5.3 µM
comparison of MIC values, E. coli ΔsbmA versus wild type [4]: the same
IC50 [5]: 36000 ± 4000 nM
IC50 ([6]; 72 h): > 20000 nM
IC50 ([7]; 72 h): > 50000 nM
Kd [9]: 160 ± 20 nM
effect on membrane potential of B. subtilis ([10]; 2.5 µM): decrease in the membrane potential, to a somewhat lesser extent
inhibitory effect on growth of bacterial cells [11]: demonstrated an inhibitory effect on the growth of bacterial cells
inhibition of bacterial translation of firefly luciferase (Fluc) mRNA [12]: weakly inhibited
IC50 ([8]; 72 h): > 50000 nM

H-RRIRPRPPYL-OH [Compound 2, Bac(1–10, R/Y)]
MIC [1]: >100 µM
MIC ([4]; E. coli ∆sbmA, 37 °C): >100 µM
IC50 [5]: > 50000 nM
IC50 ([6]; 72 h): > 20000 nM
IC50 ([7]; 72 h): > 50000 nM
Kd [9]: 1000 ± 100 nM
effect on membrane potential of B. subtilis ([10]; 50 µM): did not affect the membrane potential
inhibitory effect on growth of bacterial cells [11]: did not exhibit any antibacterial activity
inhibition of bacterial translation of firefly luciferase (Fluc) mRNA [12]: practically did not inhibit
IC50 ([8]; 72 h): > 50000 nM

CC[C@H]1OC(=O)[C@H](C)[C@@H](O[C@H]2C[C@@](C)(OC)[C@@H](O)[C@H](C)O2)[C@H](C)[C@@H](O[C@@H]2O[C@H](C)C[C@H](N(C)C)[C@H]2O)[C@](C)(O)C[C@@H](C)C(=O)[C@H](C)[C@@H](O)[C@]1(C)O [ERY, erythromycin, reference compound]
MIC ([1]; Escherichia coli): 170 µM (≈ 125 µg/mL)
MIC ([2]; Bacillus subtilis, B. subtilis 168, 37 °C, 18 h): < 0.1 µM
MIC ([3]; Bacillus subtilis, B. subtilis-CFR (chloramphenicol-resistant), 37 °C): < 0.1 µM
MIC ([4]; Escherichia coli): 170 µM (≈ 125 µg/mL)
reporter induction (Katushka2S red pseudocolor = protein synthesis inhibition) [11]: red pseudocolor reporter induction was observed

COc1cccc2c1C(=O)c1c(O)c3c(c(O)c1C2=O)C[C@@](O)(C(=O)CO)C[C@@H]3O[C@H]1C[C@H](N)[C@H](O)[C@H](C)O1 [Doxorubicin, reference compound]
IC50 ([5]; Homo sapiens, HEK-293T, HEK293T, MTT, read-out: IC50 (50% inhibition of viability of cells)): < 1600 nM
IC50 ([6]; Homo sapiens, MCF7, 72 h, MTT, read-out: IC50 (50% inhibition of viability of cells)): 1700 ± 200 nM
IC50 ([7]; Homo sapiens, VA-13, VA13, 72 h, MTT, read-out: IC50 (50% inhibition of viability of cells)): 1200 ± 300 nM
IC50 ([8]; Homo sapiens, A549, 72 h, read-out: IC50 (50% inhibition of viability of cells)): 1200 ± 100 nM
